This is an account of results in US8906825B2, “Herbicidal compositions comprising 4-amino-3-chloro-5-fluoro-6-(4-chloro-2-fluoro-3-methoxyphenyl) pyridine-2-carboxylic acid or a derivative thereof and triazolopyrimidine sulfonamides” (Dow AgroSciences LLC, priority 2012, dated 2014).

What all share (assay type): in vivo
The test system of test [1] is SCPMA (sea clubrush). Kind of test: In-water applied herbicidal mixtures, transplanted paddy rice, greenhouse (Example II). Here is the method:
Weed seeds or nutlets of the desired test plant species were planted in puddled soil (mud) prepared by mixing a shredded, non-sterilized mineral soil (50.5 percent silt, 25.5 percent clay, and 24 percent sand, with a pH of about 7.6 and an organic matter content of about 2.9 percent) and water at a 1:1 volumetric ratio. The prepared mud was dispensed in 365 mL aliquots into 16-ounce (oz.) non-perforated plastic pots with a surface area of 86.59 square centimeters (cm^2) leaving a headspace of 3 centimeters in each pot. Mud was allowed to dry overnight prior to planting or transplanting. Rice seeds were planted in Sun Gro MetroMix® 306 planting mixture, which typically has a pH of 6.0 to 6.8 and an organic matter content of about 30 percent, in plastic plug trays. Seedlings at the second or third leaf stage of growth were transplanted into 840 mL of mud contained in 32-oz. non-perforated plastic pots with a surface area of 86.59 cm^2 4 days prior to herbicide application. The paddy was created by filling the headspace of the pots with 2.5 to 3 cm of water. When required to ensure good germination and healthy plants, a fungicide treatment and/or other chemical or physical treatment was applied. The plants were grown for 4-22 days in a greenhouse with an approximate 14 h photoperiod which was maintained at about 29′C during the day and about 26° C. during the night. Nutrients were added as Osmocote® (19:6:12, N:P:K+minor nutrients) at 2 g per 16-oz. pot and 4 g per 32-oz. pot. Water was added on a regular basis to maintain the paddy flood, and supplemental lighting was provided with overhead metal halide 1000-Watt lamps as necessary. The plants were employed for testing when they reached the first through fourth true leaf stage.
Treatments consisted of the acid or esters of 4-amino-3-chloro-5-fluoro-6-(4-chloro-2-fluoro-3-methoxy-phenyl)pyridine-2-carboxylic acid (compound A) each formulated as an SC and various herbicidal components alone and in combination. Forms of compound A were applied on an acid equivalent basis.
Other herbicidal components were applied on an active ingredient basis and included acetolactate synthase (ALS)-inhibiting herbicides (sulfonamide chemical class) penoxsulam formulated as Grasp® SC (GF-443), diclosulam formulated as Strongarm®, and cloransulam-methyl formulated as FirstRate®.
Treatment requirements for each compound or herbicidal component were calculated based upon the rates being tested, the concentration of active ingredient or acid equivalent in the formulation, an application volume of 2 mL per component per pot, and an application area of 86.59 cm^2 per pot.
For formulated compounds, a measured amount was placed in an individual 100 or 200 mL glass vial and was dissolved in a volume of 1.25% (v/v) Agri-Dex® crop oil concentrate to obtain each application solution.
Applications were made by injecting with a pipetter appropriate amounts of the application solutions, individually and sequentially, into the aqueous layer of the paddy. Control plants were treated in the same manner with the solvent blank. Applications were made so that all treated plant material received the same concentrations of acetone and crop oil concentrate.
The treated plants and control plants were placed in a greenhouse as described above and water was added as needed to maintain a paddy flood. After approximately 3 weeks the condition of the test plants as compared with that of the untreated plants was determined visually and scored on a scale of 0 to 100 percent where 0 corresponds to no injury or growth inhibition and 100 corresponds to complete kill.
(§1) Colby's equation was used to determine the herbicidal effects expected from the mixtures (Colby, S. R. 1967. Calculation of the synergistic and antagonistic response of herbicide combinations. Weeds 15:20-22.).
(§2) The following equation was used to calculate the expected activity of mixtures containing two active ingredients, A and B: Expected=A+B−(A×B/100)

The test system of test [2] is LEFCH (Leptochloa chinensis (L.) Nees, Chinese sprangletop). Kind of test: Postemergence foliar-applied herbicidal mixtures, direct seeded rice, greenhouse (Example I).
Text: (§3) Seeds or nutlets of the desired test plant species were planted in a soil matrix prepared by mixing a loam or sandy loam soil (e.g., 28.6 percent silt, 18.8 percent clay, and 52.6 percent sand, with a pH of about 5.8 and an organic matter content of about 1.8 percent) and calcareous grit in an 80 to 20 ratio. The soil matrix was contained in plastic pots with a volume of 1 quart and a surface area of 83.6 square centimeters (cm^2). When required to ensure good germination and healthy plants, a fungicide treatment and/or other chemical or physical treatment was applied. The plants were grown for 8-22 days in a greenhouse with an approximate 14 h photoperiod which was maintained at about 29° C. during the day and about 26° C. during the night. Nutrients (Peters Excel® 15-5-15 5-Ca 2-Mg and iron chelate) were applied in the irrigation solution as needed and water was added on a regular basis. Supplemental lighting was provided with overhead metal halide 1000-Watt lamps as necessary. The plants were employed for testing when they reached the first through fourth true leaf stage.
(§4) Treatments consisted of the acid or esters of 4-amino-3-chloro-5-fluoro-6-(4-chloro-2-fluoro-3-methoxy-phenyl)pyridine-2-carboxylic acid (Compound A), each formulated as an SC (suspension concentrate), and various herbicidal components alone and in combination. Forms of compound A were applied on an acid equivalent basis.
(§5) Other herbicidal components were applied on an active ingredient basis and included acetolactate synthase (ALS)-inhibiting herbicides (sulfonamide chemical class) penoxsulam formulated as Grasp® SC, diclosulam formulated as Strongarm®, and cloransulam-methyl formulated as FirstRate®, flumetsulam formulated as Flumetsulam WG, and metosulam formulated as Eclipse®.
(§6) Treatment requirements were calculated based upon the rates being tested, the concentration of active ingredient or acid equivalent in the formulation, and a 12 mL application volume at a rate of 187 L/ha.
(§7) For treatments comprised of formulated compounds, measured amounts of compounds were placed individually in 25 mL glass vials and diluted in a volume of 1.25% (v/v) Agri-Dex® crop oil concentrated to obtain 12× stock solutions. […] Application solutions were prepared by adding an appropriate amount of each stock solution (e.g., 1 mL) and diluted to the appropriate final concentrations with the addition of 10 mL of an aqueous mixture of 1.25% (v/v) crop oil concentrate so that the final spray solutions contained 1.25+/−0.05% (v/v) crop oil concentrate.
(§8) All stock solutions and applications solutions were visually inspected for compound compatibility prior to application. Spray solutions were applied to the plant material with an overhead Mandel track sprayer equipped with an 8002E nozzle calibrated to deliver 187 L/ha over an application area of 0.503 m^2 at a spray height of 18 to 20 inches (46 to 50 cm) above average plant canopy height. Control plants were sprayed in the same manner with the solvent blank.
(§9) The treated plants and control plants were placed in a greenhouse as described above and watered by sub-irrigation to prevent wash-off of the test compounds. After approximately 3 weeks, the condition of the test plants as compared with that of the untreated plants was determined visually and scored on a scale of 0 to 100 percent where 0 corresponds to no injury or growth inhibition and 100 corresponds to complete kill.
as §1, §2

The subject of test [3] is IPOHE (Ipomoea hederacea Jacq., ivyleaf morningglory). Described as above.
Text: as §3, §4, §5, §6, §7, §8, §9, §1, §2

Setting [4] is: Compound A Benzyl Ester 4.38 gae/ha.
The mark [5] stands for this setting: Compound A Benzyl Ester 8.75 gae/ha.
[6] abbreviates: Compound A Benzyl Ester 17.5 gae/ha.

In the case of `COc1cnc(OC)n2nc(NS(=O)(=O)c3c(OCC(F)F)cccc3C(F)(F)F)nc12` [Penoxsulam, 2-(2,2-difluoroethoxy)-N-(5,8-dimethoxy[1,2,4]triazolo[1,5-c]pyrimidin-2-yl)-6-(trifluoromethyl)benzenesulfonamide, reference compound], the “Visual Weed Control (%) - 21 DAA SCPMA Obs” value in test [1] (Penoxsulam 10 gai/ha) was found to be 70%; in test [1] (Penoxsulam 20 gai/ha), 88%; in test [1] (Penoxsulam 40 gai/ha) it was 95%. Moreover, the “Visual Weed Control (%) - 19 DAA LEFCH Obs” value in test [2] (Penoxsulam 40 gai/ha) came to 0%. Also, the “Visual Weed Control (%) - 27 DAA IPOHE Obs” value worked out at 10% in test [3] (Penoxsulam 4.38 gai/ha, Table 3); 15% in test [3] (Penoxsulam 8.75 gai/ha, Table 1); 15% in test [3] (Penoxsulam 8.75 gai/ha, Table 2); 15% in test [3] (Penoxsulam 8.75 gai/ha, Table 3); 20% in test [3] (Penoxsulam 17.5 gai/ha, Table 1); 20% in test [3] (Penoxsulam 17.5 gai/ha, Table 2). Besides, the “Visual Weed Control (%) - 27 DAA IPOHE Obs” value in test [3] (Penoxsulam 17.5 gai/ha, Table 3) is 20%.

As for `COc1c(Cl)ccc(-c2nc(C(=O)OCc3ccccc3)c(Cl)c(N)c2F)c1F` [Compound A Benzyl Ester, benzyl ester of 4-amino-3-chloro-5-fluoro-6-(4-chloro-2-fluoro-3-methoxy-phenyl)pyridine-2-carboxylic acid], the “Visual Weed Control (%) - 21 DAA SCPMA Obs” value in test [1] (Compound A Benzyl Ester 48 gae/ha) and in test [1] (Compound A Benzyl Ester 96 gae/ha) was 0% each time. The “Visual Weed Control (%) - 20 DAA LEFCH Obs” value in test [2] (setting [4]) is 10%; in test [2] (setting [5]), 20%; in test [2] (setting [6]) it was 60%. In addition, the “Visual Weed Control (%) - 22 DAA LEFCH Obs” value in test [2] (Compound A Benzyl Ester 8 gae/ha) worked out at 10%; in test [2] (Compound A Benzyl Ester 16 gae/ha), 25%; in test [2] (Compound A Benzyl Ester 32 gae/ha), 55%. Moreover, the “Visual Weed Control (%) - 27 DAA IPOHE Obs” value in test [3] (setting [4]), in test [3] (setting [5]) and in test [3] (setting [6]) was 10% throughout.
